{"source": "patent US20170058282A1", "about": "(priority 2015, published 2017)", "origin": "cited, not measured here", "test_system": "heme sensor system HssRS (histidine kinase HssS / response regulator HssR)", "conditions": "natural HssRS; cited from earlier work", "data": [{"molecule": "C=CC1=C(C)c2cc3[nH]c(cc4nc(cc5[nH]c(cc1n2)c(C)c5CCC(=O)O)C(CCC(=O)O)=C4C)c(C)c3C=C.[Fe+2]", "note": "[heme]", "values": [{"measurement": "responsive concentrations of heme", "value": "sub-μM"}]}]}
